Target: Human CD38 (Homo sapiens (Human), UniProt P28907)
Experiment: CD38 enzyme assay
Assay type: biochemical
Details: 2 nM CD38, NAD+ substrate, absorbance at 405 nm
In short: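 IC50 values come from fitting % inhibition against compound concentration with a 4-parameter logistic, or a 3-parameter fit with top/bottom fixed at 100/0 or Hill at 1. Inhibition is scaled between DMSO wells and positive-control wells treated with a quinolinone CD38 inhibitor.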

Sequence of Human CD38 (P28907 whole entry): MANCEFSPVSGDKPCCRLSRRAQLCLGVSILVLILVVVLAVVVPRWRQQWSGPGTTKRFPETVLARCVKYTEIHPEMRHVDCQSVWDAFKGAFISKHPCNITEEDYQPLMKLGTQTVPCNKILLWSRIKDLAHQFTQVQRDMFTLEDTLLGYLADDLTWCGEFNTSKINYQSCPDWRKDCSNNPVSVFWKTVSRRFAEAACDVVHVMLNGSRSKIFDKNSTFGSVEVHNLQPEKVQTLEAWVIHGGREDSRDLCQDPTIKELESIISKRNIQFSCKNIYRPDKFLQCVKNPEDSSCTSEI

Structure (SMILES) | IC50
O=C(NCc1c(F)cccc1C(F)(F)F)c1cc(-c2cncs2)cc2nc[nH]c12 [Example 3, N-[[2-Fluoro-6-(trifluoromethyl)phenyl]methyl]-6-thiazol-5-yl-3H-benzimidazole-4-carboxamide] | 100 to 1000 nM
COCCO[C@H]1CC[C@H](NC(=O)c2nc(-n3ccnc3)nc3nc[nH]c23)CC1 [Example 14, 2-(1H-Imidazol-1-yl)-N-((1r,4r)-4-(2-methoxyethoxy)cyclohexyl)-7H-purine-6-carboxamide] | 10 to 100 nM
COCCO[C@H]1CC[C@H](NC(=O)c2nc(-n3ccnc3)nc3cn[nH]c23)CC1 [Example 23, 5-(1H-Imidazol-1-yl)-N-((1r,4r)-4-(2-methoxyethoxy)cyclohexyl)-1H-pyrazolo[4,3-d]pyrimidine-7-carboxamide] | 10 to 100 nM
CC(C)(N[C@H]1CC[C@@H](NC(=O)c2nc(-n3ccnc3)nc3cn[nH]c23)CC1)C(F)(F)F [Example 277, 5-(1H-imidazol-1-yl)-N-((1s,4s)-4-((1,1,1-trifluoro-2-methylpropan-2-yl)amino)cyclohexyl)-1H-pyrazolo[4,3-d]pyrimidine-7-carboxamide] | 100 to 1000 nM
COCCOc1ncc(NC(=O)c2nc(-n3ccnc3)nc3cc[nH]c23)cn1 [Example 165] | 10 to 100 nM
COCCN(C)[C@H]1CC[C@H](NC(=O)c2nc(-n3ccnc3)nc3cc[nH]c23)CC1 [Example 57, 2-(1H-Imidazol-1-yl)-N-((1r,4r)-4-((2-methoxyethyl)(methyl)amino)cyclohexyl)-5H-pyrrolo[3,2-d]pyrimidine-4-carboxamide] | 10 to 100 nM
CC1(NC(=O)c2nc(-n3ccnc3)nc3cc[nH]c23)CCOCC1 [Example 135] | 10 to 100 nM
CC(=O)NC[C@H]1CC[C@H](NC(=O)c2nc(-n3ccnc3)cc3cn[nH]c23)CC1 [Example 209, N-((1r,4r)-4-(acetamidomethyl)cyclohexyl)-5-(1H-imidazol-1-yl)-1H-pyrazolo[3,4-c]pyridine-7-carboxamide] | 10 to 100 nM
CN1CCC(NC(=O)c2nc(-n3ccnc3)nc3cc[nH]c23)CC1 [Example 60, 2-(1H-Imidazol-1-yl)-N-(1-methylpiperidin-4-yl)-5H-pyrrolo[3,2-d]pyrimidine-4-carboxamide] | > 1000 nM
O=C(N[C@H]1CC[C@H](NCCC(F)F)CC1)c1nc(-n2ccnc2)nc2cc[nH]c12 [Example 180] | 10 to 100 nM
Cn1ccc(NC(=O)c2nc(-n3ccnc3)nc3cc[nH]c23)n1 [Example 94, 2-(1H-Imidazol-1-yl)-N-(1-methyl-1H-pyrazol-3-yl)-5H-pyrrolo[3,2-d]pyrimidine-4-carboxamide] | < 10 nM
O=C(NC1CCN(CCC(F)(F)F)C1)c1nc(-n2ccnc2)nc2cc[nH]c12 (stereo not drawn) [Example 67, 2-(1H-Imidazol-1-yl)-N-(1-(3,3,3-trifluoropropyl)pyrrolidin-3-yl)-5H-pyrrolo[3,2-d]pyrimidine-4-carboxamide] | 10 to 100 nM
COCCOc1ccc(NC(=O)c2nc(-n3ccnc3)nc3cc[nH]c23)cc1 [Example 63, 2-(1H-Imidazol-1-yl)-N-(4-(2-methoxyethoxy)phenyl)-5H-pyrrolo[3,2-d]pyrimidine-4-carboxamide] | < 10 nM
COc1ccc(NC(=O)c2nc(-n3ccnc3)nc3cc[nH]c23)nc1 [Example 84, 2-(1H-Imidazol-1-yl)-N-(5-methoxypyridin-2-yl)-5H-pyrrolo[3,2-d]pyrimidine-4-carboxamide] | < 10 nM
O=C(N[C@H]1CC[C@@H](N2CCOCC2)CC1)c1nc(-n2ccnc2)nc2cc[nH]c12 [Example 169] | 100 to 1000 nM
CS(=O)(=O)N1CCC(NC(=O)c2nc(-n3ccnc3)nc3cc[nH]c23)CC1 [Example 75, 2-(1H-Imidazol-1-yl)-N-(1-(methylsulfonyl)piperidin-4-yl)-5H-pyrrolo[3,2-d]pyrimidine-4-carboxamide] | < 10 nM
COCCO[C@H]1CC[C@H](NC(=O)c2nc(-c3cncs3)nc3cc[nH]c23)CC1 [Example 32, N-((1r,4r)-4-(2-Methoxyethoxy)cyclohexyl)-2-(thiazol-5-yl)-5H-pyrrolo[3,2-d]pyrimidine-4-carboxamide] | 10 to 100 nM
CNC(=O)CO[C@H]1CC[C@H](NC(=O)c2nc(-n3ccnc3)nc3cc[nH]c23)CC1 [Example 80, 2-(1H-Imidazol-1-yl)-N-((1r,4r)-4-(2-(methylamino)-2-oxoethoxy)cyclohexyl)-5H-pyrrolo[3,2-d]pyrimidine-4-carboxamide] | 10 to 100 nM
CS(=O)(=O)[C@H]1CC[C@H](NC(=O)c2nc(-n3ccnc3)nc3cc[nH]c23)CC1 [Example 213, 2-(1H-imidazol-1-yl)-N-((1r,4r)-4-(methylsulfonyl)cyclohexyl)-5H-pyrrolo[3,2-d]pyrimidine-4-carboxamide] | 10 to 100 nM
O=C(N[C@H]1CC[C@H](NCCC(F)(F)F)CC1)c1nc(-n2ccnc2)nc2cc[nH]c12 [Example 103, 2-(1H-imidazol-1-yl)-N-((1r,4r)-4-((3,3,3-trifluoropropyl)amino)cyclohexyl)-5H-pyrrolo[3,2-d]pyrimidine-4-carboxamide] | 10 to 100 nM
CN(CCC(F)(F)F)[C@H]1CC[C@@H](NC(=O)c2nc(-n3ccnc3)nc3cc[nH]c23)CC1 [Example 111, 2-(1H-imidazol-1-yl)-N-((1s,4s)-4-(methyl(3,3,3-trifluoropropyl)amino)cyclohexyl)-5H-pyrrolo[3,2-d]pyrimidine-4-carboxamide] | 100 to 1000 nM
O=C(Nc1cncc(Cl)c1)c1nc(-n2ccnc2)nc2cc[nH]c12 [Example 141] | < 10 nM
O=C(NC1CCC1)c1nc(-n2ccnc2)nc2cc[nH]c12 [Example 77, N-Cyclobutyl-2-(1H-imidazol-1-yl)-5H-pyrrolo[3,2-d]pyrimidine-4-carboxamide] | < 10 nM
N#CCO[C@H]1CC[C@H](NC(=O)c2nc(-n3ccnc3)nc3cc[nH]c23)CC1 [Example 104, N-((1r,4r)-4-(cyanomethoxy)cyclohexyl)-2-(1H-imidazol-1-yl)-5H-pyrrolo[3,2-d]pyrimidine-4-carboxamide] | < 10 nM
C[C@]1(O)CC[C@@H](NC(=O)c2nc(-n3ccnc3)cc3cn[nH]c23)CC1 [Example 226, N-((1s,4s)-4-hydroxy-4-methylcyclohexyl)-5-(1H-imidazol-1-yl)-1H-pyrazolo[3,4-c]pyridine-7-carboxamide] | 10 to 100 nM
O=C(Nc1cc(Cl)ccn1)c1nc(-n2ccnc2)nc2cc[nH]c12 [Example 142] | < 10 nM
COCCO[C@H]1CC[C@@H](NC(=O)c2nc(-n3ccnc3)nc3cc[nH]c23)CC1 [Example 69, 2-(1H-Imidazol-1-yl)-N-((1s,4s)-4-(2-methoxyethoxy)cyclohexyl)-5H-pyrrolo[3,2-d]pyrimidine-4-carboxamide] | 10 to 100 nM
O=C(N[C@H]1CC[C@@H](NCC(F)F)CC1)c1nc(-n2ccnc2)nc2cc[nH]c12 [Example 106, N-((1s,4s)-4-((2,2-difluoroethyl)amino)cyclohexyl)-2-(1H-imidazol-1-yl)-5H-pyrrolo[3,2-d]pyrimidine-4-carboxamide] | 100 to 1000 nM
O=C(N[C@H]1CC[C@H](NCC(F)(F)F)CC1)c1nc(-n2ccnc2)nc2cn[nH]c12 [Example 191, 5-(1H-imidazol-1-yl)-N-((1r,4r)-4-((2,2,2-trifluoroethyl)amino)cyclohexyl)-1H-pyrazolo[4,3-d]pyrimidine-7-carboxamide] | 10 to 100 nM
CO[C@H]1CC[C@H](NC(=O)c2nc(-n3ccnc3)nc3ccsc23)CC1 [Example 136] | < 10 nM

Reference: patent US11535621B2, “Heterobicyclic amides as inhibitors of CD38” (Ribon Therapeutics, Inc., priority 2019, dated 2022)
